The Deep4Chem optical property database
“And” between values parts separate entries of the source, which are not always exact repeats. Identical values can stand only once.

Test: photoluminescence quantum yield (fraction); solvent given as SMILES
[1] = in O=P(c1ccccc1)(c1ccccc1)c1ccccc1Oc1ccccc1P(=O)(c1ccccc1)c1ccccc1

`CCC(C)(C)c1ccc(-c2ccc3c(c2)C(CCOC)(CCOC)c2cc4c(cc2-3)C(CCOC)(CCOC)c2cc(-c3ccc(C(C)(C)CC)cc3)ccc2-4)cc1` gave a photoluminescence quantum yield (in C1CCCCC1) of 0.86.

Molecule `O=S1(=O)C2=C(c3ccccc31)C1(C3=C(c4ccccc41)S(=O)(=O)c1ccccc13)c1ccccc12` has a photoluminescence quantum yield (in ClCCl) of 0.76.

Work on `O=C(c1ccc2c3c(cccc13)-c1cccc3c1C2CC=C3)c1c(CCc2ccccc2)c2ccc3cccc4c5cccc6ccc1c(c65)c2c34` (configuration not stated) yielded a photoluminescence quantum yield (in ClCCl) of 0.17.

With `N#Cc1ccc(-c2cn3ccc[n+]3[n-]2)cc1` the photoluminescence quantum yield (in ClCCl) was 0.18.

With `CC(C)[Si](C#Cc1c2nc3ccccc3nc2c(C#C[Si](C(C)C)(C(C)C)C(C)C)c2nc3c4ccccc4c(=O)c4ccccc4c3nc12)(C(C)C)C(C)C` the photoluminescence quantum yield (in ClCCl) was 0.5.

With `C[Si](C)(C)c1cccc2ccccc12` the photoluminescence quantum yield (in C1CCCCC1) was 0.3.

For `CC(=O)c1c2c(cc3ccc(N(C)C)cc13)CCC2`, the photoluminescence quantum yield (in C1CCCCC1) was 0.45, the photoluminescence quantum yield (in C1CCOC1) was 0.75 and the photoluminescence quantum yield (in C1COCCO1) was 0.46. For the same molecule, the photoluminescence quantum yield (in CC#N) was 0.99, the photoluminescence quantum yield (in CCO) was 0.05 and the photoluminescence quantum yield (in CS(C)=O) was 0.85. For the same molecule, the photoluminescence quantum yield (in Cc1ccccc1) was 0.62, the photoluminescence quantum yield (in ClC(Cl)Cl) was 0.77 and the photoluminescence quantum yield (in ClCCl) was 0.99.

With `C(#Cc1ccc(N(c2ccc(C#Cc3ccc(-c4cc(-c5ccccc5)nc(-c5ccccc5)c4)cc3)cc2)c2ccc(C#Cc3ccc(-c4cc(-c5ccccc5)nc(-c5ccccc5)c4)cc3)cc2)cc1)c1ccc(-c2cc(-c3ccccc3)nc(-c3ccccc3)c2)cc1` the photoluminescence quantum yield (in C1CCOC1) was 0.12 and the photoluminescence quantum yield (in Cc1ccccc1) was 0.16.

In the case of `CN(C)c1ccc(-c2cc(-c3ccc(C#N)cc3)nn2C)cc1`, the photoluminescence quantum yield (in ClCCl) was 0.21.

`COc1ccc(C#Cc2nc3ccccc3nc2-c2csc(OC)c2)cc1` gave a photoluminescence quantum yield (in ClCCl) of 0.32.

`CC(C)(C)c1ccc(C2=C(Br)C3=C(c4ccccc4)c4c(Br)c(-c5ccc(C(C)(C)C)cc5)c(-c5ccc(C(C)(C)C)cc5)n4[B-](F)(F)[N+]3=C2c2ccc(C(C)(C)C)cc2)cc1` gave a photoluminescence quantum yield (in C1CCCCC1) of 0.13, a photoluminescence quantum yield (in C1CCOC1) of 0.11 and a photoluminescence quantum yield (in CC#N) of 0.03. It also gave a photoluminescence quantum yield (in Cc1ccccc1) of 0.1 and a photoluminescence quantum yield (in ClCCl) of 0.09.

Work on `CCCCCCn1c2cc(/C=C/c3ccccc3)ccc2c2ccc(/C=C/c3ccccc3)cc21` yielded a photoluminescence quantum yield (in ClC(Cl)Cl) of 0.91.

`COCCN(CCOC)c1ccc(/C=C/c2sc3c4nc(C)sc4ccc3[n+]2C)cc1` showed a photoluminescence quantum yield (in ClC(Cl)Cl) of 0.05.

Work on `N#Cc1cc(-n2c3ccccc3c3cc(Br)ccc32)c(-n2c3ccccc3c3cc(Br)ccc32)cc1C#N` yielded a photoluminescence quantum yield (in C1CCOC1) of 0.057 and a photoluminescence quantum yield (in c1ccc2c(c1)c1ccccc1n2-c1ccc(-c2ccc(-n3c4ccccc4c4ccccc43)cc2)cc1) of 0.543.

With `Cn1c2ccccc2c(=O)c2ccccc21` the photoluminescence quantum yield (in CS(C)=O) was 0.65.

`CN(C)c1ccc(/C=C/c2ccc(-c3nc(C#N)c(C#N)n3C)cc2)cc1` showed a photoluminescence quantum yield (in C1CCCCC1) of 0.17, a photoluminescence quantum yield (in CC#N) of 0.002 and a photoluminescence quantum yield (in CO) of 0.002. It also gave a photoluminescence quantum yield (in ClC(Cl)Cl) of 0.16.

Work on `CC(C)(C)OC(=O)NC(Cc1ccccc1)C(=O)OCc1ccc2c3cccc4cccc(c5cccc1c52)c43` (configuration not stated) yielded a photoluminescence quantum yield (in CCO) of 0.86.

Work on `Clc1nc(Cl)nc(Nc2ccc3c4cccc5cccc(c6cccc2c63)c54)n1` yielded a photoluminescence quantum yield (in C1COCCO1) of 0.068, a photoluminescence quantum yield (in CC#N) of 0.011 and a photoluminescence quantum yield (in CCCCOCCCC) of 0.12. For the same molecule, the photoluminescence quantum yield (in CCOC(C)=O) was 0.014.

`CCN(CC)c1ccc2c(c1)oc(=O)c1c(C)nc3c(c(-c4ccccc4)nn3C)c12` gave a photoluminescence quantum yield (in C1CCCCC1) of 0.699, a photoluminescence quantum yield (in CCOC(C)=O) of 0.627 and a photoluminescence quantum yield (in CN(C)C=O) of 0.483. The photoluminescence quantum yield (in CO) was 0.43 and the photoluminescence quantum yield (in ClCCl) was 0.673.

Work on `CCCCN1C(=O)C(=C/C=C/C=C/C=C2N(CCCC)c3ccccc3N2CCCC)C(=O)N(CCCC)C1=S` yielded a photoluminescence quantum yield (in CC#N) of 0.099, a photoluminescence quantum yield (in CCCCCC) of 0.178 and a photoluminescence quantum yield (in CCO) of 0.074. The photoluminescence quantum yield (in CN(C)C=O) was 0.127, the photoluminescence quantum yield (in CO) was 0.056 and the photoluminescence quantum yield (in Cc1ccccc1) was 0.73. For the same molecule, the photoluminescence quantum yield (in ClC(Cl)Cl) was 0.365, the photoluminescence quantum yield (in ClCCl) was 0.266 and the photoluminescence quantum yield (in OCC(F)(F)F) was 0.023.

`O=Cc1ccc(-c2cccc(-c3nc4ccccc4s3)c2O)o1` gave a photoluminescence quantum yield (in CCO) of 0.0846, a photoluminescence quantum yield (in ClCCl) of 0.111 and a photoluminescence quantum yield (in O) of 0.01.

Molecule `COc1cc(C2=C(c3cc(OC)c(OC)c(OC)c3)C(c3ccc(C(C)(C)C)cc3)=[N+]3C2=Nc2c(-c4cc(OC)c(OC)c(OC)c4)c(-c4cc(OC)c(OC)c(OC)c4)c(-c4ccc(C(C)(C)C)cc4)n2[B-]3(F)F)cc(OC)c1OC` has a photoluminescence quantum yield (in Cc1ccccc1) of 0.001.

`COc1ccccc1-c1nc(-c2ccccc2)c2ccccn12` showed a photoluminescence quantum yield (in CC#N) of 0.38 and a photoluminescence quantum yield (in ClCCl) of 0.385.

For `O=[N+]([O-])c1ccc(S(=O)(=O)Nc2ccc(C#Cc3ccc4ccc5ccc(C#Cc6ccc(NS(=O)(=O)c7ccc([N+](=O)[O-])cc7[N+](=O)[O-])cc6)c6ccc3c4c56)cc2)c([N+](=O)[O-])c1`, the photoluminescence quantum yield (in CO) was 0.003.

Work on `CC(C)(C)c1ccc2c(c1)c1cc(C(C)(C)C)ccc1n2-c1ccc(C#Cc2ccc(C=C(C#N)C#N)cc2)cc1` yielded a photoluminescence quantum yield (in CC#N) of 0.33, a photoluminescence quantum yield (in CCCCC) of 0.5 and a photoluminescence quantum yield (in Cc1ccccc1) of 0.48. For the same molecule, the photoluminescence quantum yield (in ClCCl) was 0.4.

`CCCCCCOc1cc(C=C(C#N)C#N)c(OCCCCCC)cc1C=C(C#N)C#N` gave a photoluminescence quantum yield (in ClCCl) of 0.868.

Molecule `CO[B-]1(OC)n2c(C)cc(C)c2C(c2ccc(I)cc2)=C2C(C)=CC(C)=[N+]21` has a photoluminescence quantum yield (in ClC(Cl)Cl) of 0.52.

For `CCn1c2sccc2c2c3nsnc3c3c4ccsc4n(CC)c3c21`, the photoluminescence quantum yield (in C1CCOC1) was 0.51, the photoluminescence quantum yield (in CCOC(C)=O) was 0.47 and the photoluminescence quantum yield (in CN(C)C=O) was 0.43. The photoluminescence quantum yield (in Cc1ccccc1) was 0.45 and the photoluminescence quantum yield (in ClCCl) was 0.34.

For `c1ccc(-c2nc(-c3ccccc3)nc(-n3c4ccccc4c4cc(-n5c6ccccc6c6ccccc65)ccc43)n2)cc1`, the photoluminescence quantum yield [1] was 0.62.

Molecule `COCCC1=Cc2nc1ccc1[nH]c(cc1CCOC)c1nc(c(O)cc3[nH]c2cc3CCOC)C(CCOC)=C1` has a photoluminescence quantum yield (in Cc1ccccc1) of 0.18.

For `CN(C)c1ccc(-c2ccc(-c3cc(-c4ccccc4)c(-c4ccccc4)c(-c4ccccc4)c3-c3ccccc3)s2)cc1`, the photoluminescence quantum yield (in ClC(Cl)Cl) was 0.35.

`c1ccc(-[c+]2c3ccccc3sc3ccccc32)cc1` gave a photoluminescence quantum yield (in CC#N) of 0.02.

For `c1ccc(N(c2ccccc2)c2ccccc2)cc1`, the photoluminescence quantum yield (in CCO) was 0.03.

Work on `CC[N+](CC)=c1ccc2cc3c(=O)oc4cc5c(cc4c3oc-2c1)CCCN5C` yielded a photoluminescence quantum yield (in ClCCl) of 0.265 and a photoluminescence quantum yield (in O) of 0.009.

Molecule `c1ccc(-c2ccc(-c3nc(-c4ccccc4)c(N(c4ccccc4)c4ccccc4)[se]3)cc2)cc1` has a photoluminescence quantum yield (in ClC(Cl)Cl) of 0.159.

Work on `CC(C)(C)NC1=C2C=CC=[N+]2[B-](F)(F)n2cccc21` yielded a photoluminescence quantum yield (in C1CCCCC1) of 0.63, a photoluminescence quantum yield (in CC(C)=O) of 0.002 and a photoluminescence quantum yield (in CCO) of 0.002. It also gave a photoluminescence quantum yield (in CCOC(C)=O) of 0.012, a photoluminescence quantum yield (in CO) of 0.001 and a photoluminescence quantum yield (in OCC(F)(F)F) of 0.006.

With `N#Cc1nc(-c2ccc(N3c4ccccc4Oc4ccccc43)cc2)c(-c2ccc(N3c4ccccc4Oc4ccccc43)cc2)nc1C#N` the photoluminescence quantum yield (in c1cc(-c2cccc(-n3c4ccccc4c4ccccc43)c2)cc(-n2c3ccccc3c3ccccc32)c1) was 0.15.

With `Cc1cc(C)c(C2=C3C=c4c(c5ccccc5c5ccccc45)=[N+]3[B-](F)(F)n3c2cc2c4ccccc4c4ccccc4c23)c(C)c1` the photoluminescence quantum yield (in C1CCCCC1) was 0.64, the photoluminescence quantum yield (in C1CCOC1) was 0.55 and the photoluminescence quantum yield (in CC#N) was 0.55. For the same molecule, the photoluminescence quantum yield (in Cc1ccccc1) was 0.51 and the photoluminescence quantum yield (in ClCCl) was 0.51 and 0.55.

Work on `O=C(O)c1ccc(-c2nc(-c3ccccc3)c3ccccn23)cc1` yielded a photoluminescence quantum yield (in CC#N) of 0.13.

For `N#Cc1cc2ccc3cc(C#N)c4ccccc4c3c2c2ccccc12`, the photoluminescence quantum yield (in ClC(Cl)Cl) was 0.14.

In the case of `CC(C)[Si](C#Cc1c2nc3c(nc2c(C#C[Si](C(C)C)(C(C)C)C(C)C)c2nc4c(nc12)C1c2ccccc2C4c2ccccc21)C1c2ccccc2C3c2ccccc21)(C(C)C)C(C)C`, the photoluminescence quantum yield (in CCCCCC) was 0.33.

For `c1ccc(-c2ccc(-c3ccc4c(c3)CCCO4)cc2)cc1`, the photoluminescence quantum yield (in C1CCCCC1) was 0.62.

`COc1ccc2ccc3oc(=O)c(-c4ccccc4)nc3c2c1` gave a photoluminescence quantum yield (in c1ccccc1) of 0.668.

Work on `CC1=[N+]2C(=C(c3ccccc3)c3c4c(c(C)n3[B-]2(F)F)C2CCC4CC2)C2=C1C1CCC2CC1` yielded a photoluminescence quantum yield (in CC#N) of 0.81.

Molecule `CC(C)[Si](C#Cc1c2ccccc2c(C#C[Si](C(C)C)(C(C)C)C(C)C)c2nc3c4ccccc4c(=O)c4ccccc4c3nc12)(C(C)C)C(C)C` has a photoluminescence quantum yield (in ClCCl) of 0.75.

In the case of `Cc1cc2c(ccc3c(C)[n+](C)c(C)cc32)c(C)[n+]1C`, the photoluminescence quantum yield (in CC#N) was 0.29.

In the case of `c1ccc(-c2nc(-c3cccs3)[nH]c2-c2ccccc2)cc1`, the photoluminescence quantum yield (in CC#N) was 0.39.

Work on `Cc1ccc(-c2cc(-c3ccccc3)c3c(N)nc(N4CCCC4)c(C#N)c3n2)cc1` yielded a photoluminescence quantum yield (in CC#N) of 0.046 and a photoluminescence quantum yield (in c1ccccc1) of 0.073.

Work on `CC(C)(C)c1ccc2c(c1)c1cc(C(C)(C)C)ccc1n2-c1ccccc1-c1nc(-c2ccccc2-n2c3ccc(C(C)(C)C)cc3c3cc(C(C)(C)C)ccc32)nc(-c2ccccc2P(=O)(c2ccccc2)c2ccccc2)n1` yielded a photoluminescence quantum yield [1] of 0.45.

`c1ccc(-c2nc3ccccc3nc2-c2cc(-n3c4ccccc4c4ccccc43)cc(-n3c4ccccc4c4ccccc43)c2)cc1` gave a photoluminescence quantum yield (in Cc1ccccc1) of 0.19.

`c1ccc(-c2nc3c4ccccc4c4ccccc4c3n2-c2ccccc2)cc1` gave a photoluminescence quantum yield (in C1CCOC1) of 0.588.

`N#Cc1cc(-n2c3ccccc3c3ccccc32)c(-n2c3ccccc3c3ccccc32)cc1-c1cc(-n2c3ccccc3c3ccccc32)c(-n2c3ccccc3c3ccccc32)cc1C#N` showed a photoluminescence quantum yield (in Cc1ccccc1) of 0.46.

Molecule `Cc1ccc2nc3[nH]c(=O)[nH]c(=O)c3nc2c1` has a photoluminescence quantum yield (in CC#N) of 0.025 and a photoluminescence quantum yield (in ClCCCl) of 0.034.

`CCCCC1=Cc2c3ccc4cccc5ccc(c6cc(-c7ccccc7)n(c26)P1(=O)c1ccccc1)c3c45` (configuration not stated) showed a photoluminescence quantum yield (in C1CCCCC1) of 0.64, a photoluminescence quantum yield (in C1CCOC1) of 0.51 and a photoluminescence quantum yield (in C1COCCO1) of 0.55. For the same molecule, the photoluminescence quantum yield (in CC#N) was 0.54, the photoluminescence quantum yield (in CC(C)=O) was 0.56 and the photoluminescence quantum yield (in CO) was 0.51. The photoluminescence quantum yield (in Cc1ccccc1) was 0.6, the photoluminescence quantum yield (in ClC(Cl)Cl) was 0.56 and the photoluminescence quantum yield (in ClCCl) was 0.57.

`COc1ccc(-c2oc3cccc4c5c(-c6ccc(OC)c(OC)c6)/c(=N/S(=O)(=O)C(F)(F)F)oc6cccc(c2c34)c65)cc1OC` gave a photoluminescence quantum yield (in ClC(Cl)Cl) of 0.1.
